Measurements reported in patent US20260070917A1, “CYCLIN DEPENDENT KINASE DEGRADERS AND METHODS OF USE THEREOF” (Differentiated Therapeutics Inc, priority 2023, published 2026).
Like-named read-outs stand apart in the source and are kept apart here.

What was measured:
Type in all cases: cell-based
CDK9 = target: T1, CDK9 (Homo sapiens, UniProt P50750); assay: HiBit Assay Protocol for CDK9 (HIBIT protein quantification, degradation); details: HEK293-CDK9-Hibit cells, compound treatment for 6 hours; for Dmax: read-out: CDK9 HIBIT Protein Quantification Maximum
T1 construct: host or cells: HEK293-CDK9-Hibit
How it was run: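 HEK293 cells carrying HiBiT-tagged CDK9 treated 6 h with compounds in a 3-fold, 10-point dilution series. CDK9 level read by lytic Nano-Glo HiBiT/LgBiT luminescence and normalized to 0.1% DMSO (high) and medium-only (low) controls. DC50 from curve fitting.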

CDK2 = target: T2, CDK2 (Homo sapiens, UniProt P24941); assay: HiBit Assay Protocol for CDK2 (HIBIT protein quantification, degradation); details: HEK293-CDK2-Hibit cells, compound treatment for 6 hours; for DC50: ABS DC50
T2 construct: host or cells: HEK293-CDK2-Hibit
How it was run: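 HEK293 cells expressing HiBiT-tagged CDK2 were seeded overnight, then treated 6 h with a 3-fold, 10-point compound dilution series. CDK2 levels were read as luminescence after lytic HiBiT/LgBiT detection, normalised to DMSO-only and medium-only controls, and DC50 derived by curve fitting.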

CCNE1 = target: T3, CCNE1 (Homo sapiens, UniProt P24864); assay: HiBit Assay Protocol for CCNE1 (HIBIT protein quantification, degradation); details: HEK293-CCNE1-Hibit cells, compound treatment for 6 hours
T3 construct: host or cells: HEK293-CCNE1-Hibit
How it was run: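 HEK293 cells expressing HiBiT-tagged CCNE1 were seeded overnight, then treated 6 h with a 3-fold, 10-point compound dilution series. HiBiT levels were read by lytic LgBiT luminescence and normalised to DMSO-only (high) and medium-only (low) controls. DC50 was derived by curve fitting.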

T3 sequence (P24864 whole entry): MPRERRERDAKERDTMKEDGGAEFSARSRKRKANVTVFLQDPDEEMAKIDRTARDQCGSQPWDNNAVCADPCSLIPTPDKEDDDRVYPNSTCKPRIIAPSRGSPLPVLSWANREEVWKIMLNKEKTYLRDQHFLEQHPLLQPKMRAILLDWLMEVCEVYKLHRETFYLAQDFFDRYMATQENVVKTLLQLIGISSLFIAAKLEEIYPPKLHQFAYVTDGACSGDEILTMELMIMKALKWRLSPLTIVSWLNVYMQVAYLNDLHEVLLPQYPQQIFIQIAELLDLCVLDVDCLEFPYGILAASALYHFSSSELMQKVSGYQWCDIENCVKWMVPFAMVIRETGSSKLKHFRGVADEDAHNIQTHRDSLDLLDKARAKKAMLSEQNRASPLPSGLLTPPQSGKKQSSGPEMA
T1 sequence (P50750 whole entry): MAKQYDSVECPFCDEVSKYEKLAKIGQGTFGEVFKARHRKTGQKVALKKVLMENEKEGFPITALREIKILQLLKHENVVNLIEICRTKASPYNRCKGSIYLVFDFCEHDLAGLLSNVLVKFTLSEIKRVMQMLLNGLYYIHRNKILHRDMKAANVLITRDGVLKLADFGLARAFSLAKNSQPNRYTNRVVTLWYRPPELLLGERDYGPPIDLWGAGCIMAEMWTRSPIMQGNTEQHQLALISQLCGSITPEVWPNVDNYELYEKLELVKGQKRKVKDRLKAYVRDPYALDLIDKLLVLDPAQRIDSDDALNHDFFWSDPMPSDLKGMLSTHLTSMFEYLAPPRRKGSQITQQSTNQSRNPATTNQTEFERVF

Row | SMILES | Dmax (CDK9; 6 h) [%] | CDK2 HIBIT Protein Quantification Maximum (CDK2) [%] | DC50 (CDK2) [nM] | CCNE1 HIBIT Protein Quantification Maximum (CCNE1) [%] | DC50 (CDK9; ABS DC50) [nM] | Dmax (CDK9) [%]
1 | CC1CCCC1N1C(=O)C2(CC2)c2cnc(NC3CCN(S(=O)(=O)C4CCN(C(=O)CCCCCCCCCc5ccc6c(c5)n(C)c(=O)n6C5CCC(=O)NC5=O)C4)CC3)nc21 (centres unmarked) [Compound 90] | 45 | 67 | 5 | 34 |  | 
2 | CC1CCCC1N1C(=O)C2(CC2)c2cnc(NC3CCN(S(=O)(=O)N4CC(N(C)C(=O)CCCCc5cccc6c5n(C)c(=O)n6C5CCC(=O)NC5=O)C4)CC3)nc21 (centres unmarked) [Compound 91] | 37 | 64 | 6 | 25 |  | 
3 | CC1CCCC1N1C(=O)C2(CC2)c2cnc(NC3CCN(S(=O)(=O)N4CC5CN(C(=O)CCCCc6cccc7c6n(C)c(=O)n7C6CCC(=O)NC6=O)CC5C4)CC3)nc21 (centres unmarked) [Compound 92] | 26 | 39 |  | 7 |  | 
4 | CC1CCCC1N1C(=O)C2(CC2)c2cnc(NC3CCN(S(=O)(=O)N4CCC5(CCCN5C(=O)CCCCc5cccc6c5n(C)c(=O)n6C5CCC(=O)NC5=O)C4)CC3)nc21 (centres unmarked) [Compound 94] | 51 | 63 | 16 | 39 | 2 | 
5 | CC1CCCC1N1C(=O)C2(CC2)c2cnc(NC3CCN(S(=O)(=O)N4CC5(CCCCN5C(=O)CCCCc5cccc6c5n(C)c(=O)n6C5CCC(=O)NC5=O)C4)CC3)nc21 (centres unmarked) [Compound 95] | 7 | 65 | 11 | 15 |  | 
6 | CC1CCCC1N1C(=O)C2(CC2)c2cnc(NC3CCN(S(=O)(=O)N4CC5(CCCN(C(=O)CCCCc6cccc7c6n(C)c(=O)n7C6CCC(=O)NC6=O)C5)C4)CC3)nc21 (centres unmarked) [Compound 96] | 26 | 46 |  | 46 |  | 
7 | CC1CCCC1N1C(=O)C2(CC2)c2cnc(NC3CCN(S(=O)(=O)N4CC5(CN(C(=O)CCCCc6cccc7c6n(C)c(=O)n7C6CCC(=O)NC6=O)C5)C4)CC3)nc21 (centres unmarked) [Compound 97] | 46 | 41 |  | 14 |  | 
8 | CC1CCCC1N1C(=O)C2(CC2)c2cnc(NC3CCN(S(=O)(=O)N4CC5CN(C(=O)CCCCc6cccc7c6n(C)c(=O)n7C6CCC(=O)NC6=O)CC54)CC3)nc21 (centres unmarked) [Compound 99] | 11 | 31 |  | 1 |  | 
9 | CC1CCCC1N1C(=O)C2(CC2)c2cnc(NC3CCN(S(=O)(=O)N4CCCN(C(=O)CCCCc5cccc6c5n(C)c(=O)n6C5CCC(=O)NC5=O)CC4)CC3)nc21 (centres unmarked) [Compound 100] | 34 | 62 | 6 | 31 |  | 
10 | CC1CCCC1N1C(=O)C2(CC2)c2cnc(NC3CCN(S(=O)(=O)C4CCCN(C(=O)CCCCc5cccc6c5n(C)c(=O)n6C5CCC(=O)NC5=O)C4)CC3)nc21 (centres unmarked) [Compound 101] | 23 | 38 |  | 47 |  | 
11 | CC1CCCC1N1C(=O)C2(CC2)c2cnc(NC3CCN(S(=O)(=O)N4CC5CN(C(=O)CCCCc6ccc7c(c6)n(C)c(=O)n7C6CCC(=O)NC6=O)CC5C4)CC3)nc21 (centres unmarked) [Compound 103] | 0 | 31 |  | 7 |  | 
12 | CC1CCCC1N1C(=O)C2(CC2)c2cnc(NC3CCN(S(=O)(=O)N4CCCC45CCN(C(=O)CCCCc4ccc6c(c4)n(C)c(=O)n6C4CCC(=O)NC4=O)C5)CC3)nc21 (centres unmarked) [Compound 104] | 11 | 25 |  | 6 |  | 
13 | CC1CCCC1N1C(=O)C2(CC2)c2cnc(NC3CCN(S(=O)(=O)N4CCC5(CCCN5C(=O)CCCCc5ccc6c(c5)n(C)c(=O)n6C5CCC(=O)NC5=O)C4)CC3)nc21 (centres unmarked) [Compound 105] | 36 | 40 |  | 15 |  | 
14 | CC1CCCC1N1C(=O)C2(CC2)c2cnc(NC3CCN(S(=O)(=O)N4CC5(CCCCN5C(=O)CCCCc5ccc6c(c5)n(C)c(=O)n6C5CCC(=O)NC5=O)C4)CC3)nc21 (centres unmarked) [Compound 106] | 12 | 32 |  | 3 |  | 
15 | O=C1CCC(N2Cc3cc(N4CCC(CN5CCN(c6cccc(S(=O)(=O)N7CCC(Nc8ncc9c(n8)N([C@@H]8CCC[C@@H](O)C8)C(=O)C98CC8)CC7)c6)CC5)CC4)ccc3C2=O)C(=O)N1 (stereo partly drawn) [Compound 119, 3-{5-[4-({4-[3-(4-{7′-[(1R,3R)-3-hydroxycyclohexyl]-6′-oxospiro[cyclopropane-1,5′-pyrrolo [2,3-d]pyrimidin]-2′-ylamino}piperidin-1-ylsulfonyl)phenyl]piperazin-1-yl}methyl)piperidin-1-yl]-1-oxo-3H-isoindol-2-yl}piperidine-2,6-dione] |  | 70 | 3 | 22 |  | 25

Second part, led by results:

Row | Dmax (CDK9; 6 h) [%] | CDK2 HIBIT Protein Quantification Maximum (CDK2) [%] | DC50 (CDK2) [nM] | CCNE1 HIBIT Protein Quantification Maximum (CCNE1) [%] | DC50 (CDK9; ABS DC50) [nM] | SMILES | Dmax (CDK9) [%]
16 | 22 | 28 |  | 25 |  | CC1CCCC1N1C(=O)C2(CC2)c2cnc(NC3CCN(S(=O)(=O)N4CC5(CCCN(C(=O)CCCCc6ccc7c(c6)n(C)c(=O)n7C6CCC(=O)NC6=O)C5)C4)CC3)nc21 (centres unmarked) [Compound 107] | 
17 | 4 | 42 |  | 16 |  | CC1CCCC1N1C(=O)C2(CC2)c2cnc(NC3CCN(S(=O)(=O)N4CC5(CN(C(=O)CCCCc6ccc7c(c6)n(C)c(=O)n7C6CCC(=O)NC6=O)C5)C4)CC3)nc21 (centres unmarked) [Compound 108] | 
18 | 47 | 57 | 4 | 22 |  | CC1CCCC1N1C(=O)C2(CC2)c2cnc(NC3CCN(S(=O)(=O)N4CC5(CCN(C(=O)CCCCc6ccc7c(c6)n(C)c(=O)n7C6CCC(=O)NC6=O)CC5)C4)CC3)nc21 (centres unmarked) [Compound 109] | 
19 | 14 | 20 |  | 5 |  | CC1CCCC1N1C(=O)C2(CC2)c2cnc(NC3CCN(S(=O)(=O)N4CC5C4CCN5C(=O)CCCCc4ccc5c(c4)n(C)c(=O)n5C4CCC(=O)NC4=O)CC3)nc21 (centres unmarked) [Compound 110] | 
20 | 25 | 13 |  | 9 |  | CC1CCCC1N1C(=O)C2(CC2)c2cnc(NC3CCN(S(=O)(=O)N4CC5CN(C(=O)CCCCc6ccc7c(c6)n(C)c(=O)n7C6CCC(=O)NC6=O)CC54)CC3)nc21 (centres unmarked) [Compound 111] | 
21 | 28 | 22 |  | 14 |  | CC1CCCC1N1C(=O)C2(CC2)c2cnc(NC3CCN(S(=O)(=O)N4CCC5(CCN(C(=O)CCCCc6ccc7c(c6)n(C)c(=O)n7C6CCC(=O)NC6=O)C5)C4)CC3)nc21 (centres unmarked) [Compound 112] | 
22 | 6 | 21 |  | 28 |  | CC1CCCC1N1C(=O)C2(CC2)c2cnc(NC3CCN(S(=O)(=O)N4CCCN(C(=O)CCCCc5ccc6c(c5)n(C)c(=O)n6C5CCC(=O)NC5=O)CC4)CC3)nc21 (centres unmarked) [Compound 113] | 
23 | 14 | 76 | 7 | 44 |  | Cn1nc(N2CCC(=O)NC2=O)c2ccc(C3CCN(Cc4cccc(S(=O)(=O)N5CCC(Nc6ncc7c(n6)N([C@@H]6CCC[C@@H](O)C6)C(=O)C76CC6)CC5)c4)CC3)cc21 [Compound 118, 1-(6-(1-(3-((4-((7′-((1R,3R)-3-hydroxycyclohexyl)-6′-oxo-6′,7′-dihydrospiro[cyclopropane-1,5′-pyrrolo[2,3-d]pyrimidin]-2′-yl)amino)piperidin-1-yl)sulfonyl)benzyl)piperidin-4-yl)-1-methyl-1H-indazol-3-yl)dihydropyrimidine-2,4(1H,3H)-dione] | 
24 | 25 | 62 | 23 | 23 |  | O=C1CCC(N2Cc3cc(N4CC5(CN(Cc6cccc(S(=O)(=O)N7CCC(Nc8ncc9c(n8)N([C@@H]8CCC[C@@H](O)C8)C(=O)C98CC8)CC7)c6)C5)C4)ccc3C2=O)C(=O)N1 (some centres unmarked) [Compound 120] | 
25 | 12 | 79 | 47 | 44 |  | O=C1CCC(N2Cc3cc(N4CCN(Cc5cccc(S(=O)(=O)N6CCC(Nc7ncc8c(n7)N([C@@H]7CCC[C@@H](O)C7)C(=O)C87CC7)CC6)c5)CC4)c(F)cc3C2=O)C(=O)N1 (stereo partly drawn) [Compound 121, 3-(6-fluoro-5-(4-(3-((4-((7′-((1R,3R)-3-hydroxycyclohexyl)-6′-oxo-6′,7′-dihydrospiro [cyclopropane-1,5′-pyrrolo[2,3-d]pyrimidin]-2′-yl)amino)piperidin-1-yl)sulfonyl)benzyl)piperazin-1-yl)-1-oxoisoindolin-2-yl)piperidine-2,6-dione] | 
